Our source for the Ki values is US9738655B2, “Tetrahydroisoquinolines containing substituted azoles as factor XIa inhibitors” (BRISTOL-MYERS SQUIBB COMPANY, priority 2013, dated 2017).

Counter-ions that a name gives are not always drawn. Like-named read-outs stand apart in the source and are kept apart here.

In assay [1] the target is purified human plasma kallikrein (Homo sapiens (Human), UniProt P03952). The assay is described as follows: Plasma kallikrein enzyme inhibition assay (chromogenic substrate S-2302). Type of assay: biochemical.
Chain of purified human plasma kallikrein (P03952 391-638): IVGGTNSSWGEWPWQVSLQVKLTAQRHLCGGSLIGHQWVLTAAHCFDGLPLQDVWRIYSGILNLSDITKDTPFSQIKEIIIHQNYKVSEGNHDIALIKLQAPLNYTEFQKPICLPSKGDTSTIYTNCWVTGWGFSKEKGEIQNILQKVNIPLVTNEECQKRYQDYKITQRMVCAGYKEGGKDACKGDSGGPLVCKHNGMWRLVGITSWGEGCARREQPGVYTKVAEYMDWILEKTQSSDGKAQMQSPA
Chain of purified human plasma kallikrein (P03952 20-390 partner): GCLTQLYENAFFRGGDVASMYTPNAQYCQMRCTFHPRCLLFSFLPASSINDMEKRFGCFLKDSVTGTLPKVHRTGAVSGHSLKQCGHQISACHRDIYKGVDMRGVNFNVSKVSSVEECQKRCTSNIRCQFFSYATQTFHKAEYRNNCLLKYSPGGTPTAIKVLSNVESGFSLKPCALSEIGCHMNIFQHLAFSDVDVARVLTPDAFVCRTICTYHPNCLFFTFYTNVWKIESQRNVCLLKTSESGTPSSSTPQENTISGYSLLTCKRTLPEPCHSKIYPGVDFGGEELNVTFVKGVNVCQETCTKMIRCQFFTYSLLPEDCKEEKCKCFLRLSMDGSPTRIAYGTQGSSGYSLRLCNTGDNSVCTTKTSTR
The target of assay [2] is purified human Factor XIa (Homo sapiens (Human), UniProt P03951). Nature of the assay: Factor XIa enzyme inhibition assay (chromogenic substrate S-2366).
Chain of purified human Factor XIa (P03951 388-625): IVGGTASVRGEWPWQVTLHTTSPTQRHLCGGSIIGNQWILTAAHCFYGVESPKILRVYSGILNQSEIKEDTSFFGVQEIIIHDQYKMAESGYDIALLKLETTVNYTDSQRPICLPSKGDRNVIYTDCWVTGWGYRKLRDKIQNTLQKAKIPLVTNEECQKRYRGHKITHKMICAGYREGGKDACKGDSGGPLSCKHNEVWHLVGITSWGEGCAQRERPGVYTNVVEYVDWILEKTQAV
Chain of purified human Factor XIa (P03951 19-387 partner): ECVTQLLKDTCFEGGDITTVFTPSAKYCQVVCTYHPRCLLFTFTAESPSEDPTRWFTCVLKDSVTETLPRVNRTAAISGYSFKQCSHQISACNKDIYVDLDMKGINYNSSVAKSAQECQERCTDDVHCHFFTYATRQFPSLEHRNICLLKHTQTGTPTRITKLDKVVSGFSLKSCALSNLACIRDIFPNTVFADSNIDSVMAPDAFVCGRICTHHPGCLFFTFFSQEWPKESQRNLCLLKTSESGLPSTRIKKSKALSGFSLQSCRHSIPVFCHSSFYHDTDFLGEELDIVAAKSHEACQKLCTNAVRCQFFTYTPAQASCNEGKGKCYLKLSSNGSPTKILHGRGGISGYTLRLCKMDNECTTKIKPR
Setting [3] is: measured at 25° C. (no asterisk).
The mark [4] stands for this setting: read-out: Factor XIa Ki, measured at 25° C.

Turning to `O=C(O)c1ccc(NC(=O)C2c3cccc(N4CCC(N5CCCC5)CC4)c3CCN2C(=O)C2CC(c3cccc(Cl)c3)=NO2)cc1` (single isomer, unassigned) [Example 203, 4-(2-(3-(3-chlorophenyl)-4,5-dihydroisoxazole-5-carbonyl)-5-(4-(pyrrolidin-1-yl)piperidin-1-yl)-1,2,3,4-tetrahydroisoquinoline-1-carboxamido)benzoic acid, 2 TFA salt], the inhibition constant Ki in assay [1] (setting [3]) is 1.29 nM; in assay [2], under 5 nM.
For `CN(C)C(=O)C1CCN(c2cccc3c2CCN(C(=O)c2cnn(-c4cccc(Cl)c4F)c2)[C@H]3C(=O)Nc2ccc(C(=O)O)cc2)CC1` (single isomer, unassigned) [Example 60, TFA salt], the inhibition constant (Ki) is 698 nM in assay [1] (setting [3]) and 47.8 nM in assay [2] (setting [4]).
The matching figures for `O=C(O)c1ccc(NC(=O)C2c3cccc(-c4cncnc4)c3CCN2C(=O)c2cn(-c3cccc(Cl)c3F)nn2)cc1` (stereo not drawn) [Example 12, 4-(2-(1-(3-Chloro-2-fluorophenyl)-1H-1,2,3-triazole-4-carbonyl)-5-(pyrimidin-5-yl)-1,2,3,4-tetrahydroisoquinoline-1-carboxamido)benzoic acid]: 9.88 nM and under 5 nM.
With `COC1CCN(c2cccc3c2CCN(C(=O)c2cc(-c4cccc(Cl)c4F)no2)C3C(=O)Nc2ccc(C(=O)O)cc2)CC1` (racemic) [Example 268, 4-(2-(3-(3-chloro-2-fluorophenyl)isoxazole-5-carbonyl)-5-(4-methoxypiperidin-1-yl)-1,2,3,4-tetrahydroisoquinoline-1-carboxamido)benzoic acid, TFA salt], the Ki was 178 nM in assay [1] (measured at 37° C. (*)) and 1430 nM in assay [2].
On to `Cn1ncc2cc(-c3cccc4c3CCN(C(=O)c3cn(-c5cccc(Cl)c5F)nn3)C4C(=O)Nc3ccc(C(=O)O)cc3)ccc21` (stereo not drawn) [Example 156, 4-(2-(1-(3-chloro-2-fluorophenyl)-1H-1,2,3-triazole-4-carbonyl)-5-(1-methyl-1H-indazol-5-yl)-1,2,3,4-tetrahydroisoquinoline-1-carboxamido)benzoic acid], for which the Ki in assay [1] (setting [3]) was 30.1 nM; in assay [2] (setting [4]) it was under 5 nM.
For `NCc1cccc2c1CCN(C(=O)c1cn(-c3cccc(Cl)c3F)nn1)C2C(=O)Nc1ccc(C(=O)O)cc1` (stereo not drawn) [Example 109, 4-(5-(Aminomethyl)-2-(1-(3-chloro-2-fluorophenyl)-1H-1,2,3-triazole-4-carbonyl)-1,2,3,4-tetrahydroisoquinoline-1-carboxamido)benzoic acid, TFA salt], in that order: 2.29 nM and 14.5 nM.
As for `O=C(O)c1ccc(NC(=O)[C@@H]2c3cccc(N4CCN(CC(F)(F)F)CC4)c3CCN2C(=O)[C@H]2CC(c3cccc(Cl)c3F)=NO2)cc1` [Example 230, 4-((S)-2-((R)-3-(3-Chloro-2-fluorophenyl)-4,5-dihydroisoxazole-5-carbonyl)-5-(4-(2,2,2-trifluoroethyl)piperazin-1-yl)-1,2,3,4-tetrahydroisoquinoline-1-carboxamido)benzoic acid, 2 TFA salt], the Ki was 12.3 nM in assay [1] (measured at 37° C. (*)) and under 5 nM in assay [2] (read-out: Factor XIa Ki).
Turning to `O=C(O)c1ccc(NC(=O)C2c3ccccc3CCN2C(=O)c2cn(-c3cccc(Cl)c3F)nn2)cc1` (stereo not drawn) [Example 1, 4-(2-(1-(3-Chloro-2-fluorophenyl)-1H-1,2,3-triazole-4-carbonyl)-1,2,3,4-tetrahydroisoquinoline-1-carboxamido)benzoic acid], the inhibition constant (Ki) in assay [1] (setting [3]) came to 20.8 nM; in assay [2] (setting [4]) it was 13.5 nM.
Consider `CC1(COc2cccc3c2CCN(C(=O)c2cn(-c4cccc(Cl)c4F)nn2)C3C(=O)Nc2ccc(C(=O)O)cc2)COC1` (stereo not drawn) [Example 124, 4-(2-(1-(3-Chloro-2-fluorophenyl)-1H-1,2,3-triazole-4-carbonyl)-5-((3-methyloxetan-3-yl)methoxy)-1,2,3,4-tetrahydroisoquinoline-1-carboxamido)benzoic acid], for which the values for the Ki in assay [1] (measured at 37° C. (*)) and in assay [2] (setting [4]) were 36.2 nM and under 5 nM, respectively.
